Values after ≈ are worked out from the molar mass of the structure shown.
How the values were obtained:
HepG2 = assay: MTT antitumour (cytotoxicity) assay, HepG2; assay type: cell-based; conditions: Homo sapiens, HepG2, HepG2 cell line, 50% inhibition of tumour cell proliferation, read-out: In vitro cytotoxicity IC50
Procedure: (§1) The designed compounds were evaluated for their in vitro antitumour effect using the standard MTT method against two human tumour cell lines, namely, HepG2 and HCT116[45–48]. The quantitative evaluation of the cytotoxicity was performed using tetrazolium salt MTT (3-(4,5-dimethyl-2-thiazolyl)-2,5-diphenyl-2 H-tetrazolium bromide) assay. The cytotoxic activity was expressed as the concentration of the compound that caused 50% growth inhibition (IC50, mean ± SEM) compared with the growth of untreated cells.

HCT116 = assay: MTT antitumour (cytotoxicity) assay, HCT116; assay type: cell-based; conditions: Homo sapiens, HCT-116, HCT116 cell line, 50% inhibition of tumour cell proliferation, read-out: In vitro cytotoxicity IC50
Procedure: as §1

EGFR kinase = EGFR kinase (Homo sapiens, UniProt P00533); assay: ELISA-based EGFR-TK kinase inhibition assay; assay type: biochemical; conditions: n = 3, read-out: Enzymatic IC50 toward EGFR kinase
EGFR kinase, sequence (P00533 25-1210): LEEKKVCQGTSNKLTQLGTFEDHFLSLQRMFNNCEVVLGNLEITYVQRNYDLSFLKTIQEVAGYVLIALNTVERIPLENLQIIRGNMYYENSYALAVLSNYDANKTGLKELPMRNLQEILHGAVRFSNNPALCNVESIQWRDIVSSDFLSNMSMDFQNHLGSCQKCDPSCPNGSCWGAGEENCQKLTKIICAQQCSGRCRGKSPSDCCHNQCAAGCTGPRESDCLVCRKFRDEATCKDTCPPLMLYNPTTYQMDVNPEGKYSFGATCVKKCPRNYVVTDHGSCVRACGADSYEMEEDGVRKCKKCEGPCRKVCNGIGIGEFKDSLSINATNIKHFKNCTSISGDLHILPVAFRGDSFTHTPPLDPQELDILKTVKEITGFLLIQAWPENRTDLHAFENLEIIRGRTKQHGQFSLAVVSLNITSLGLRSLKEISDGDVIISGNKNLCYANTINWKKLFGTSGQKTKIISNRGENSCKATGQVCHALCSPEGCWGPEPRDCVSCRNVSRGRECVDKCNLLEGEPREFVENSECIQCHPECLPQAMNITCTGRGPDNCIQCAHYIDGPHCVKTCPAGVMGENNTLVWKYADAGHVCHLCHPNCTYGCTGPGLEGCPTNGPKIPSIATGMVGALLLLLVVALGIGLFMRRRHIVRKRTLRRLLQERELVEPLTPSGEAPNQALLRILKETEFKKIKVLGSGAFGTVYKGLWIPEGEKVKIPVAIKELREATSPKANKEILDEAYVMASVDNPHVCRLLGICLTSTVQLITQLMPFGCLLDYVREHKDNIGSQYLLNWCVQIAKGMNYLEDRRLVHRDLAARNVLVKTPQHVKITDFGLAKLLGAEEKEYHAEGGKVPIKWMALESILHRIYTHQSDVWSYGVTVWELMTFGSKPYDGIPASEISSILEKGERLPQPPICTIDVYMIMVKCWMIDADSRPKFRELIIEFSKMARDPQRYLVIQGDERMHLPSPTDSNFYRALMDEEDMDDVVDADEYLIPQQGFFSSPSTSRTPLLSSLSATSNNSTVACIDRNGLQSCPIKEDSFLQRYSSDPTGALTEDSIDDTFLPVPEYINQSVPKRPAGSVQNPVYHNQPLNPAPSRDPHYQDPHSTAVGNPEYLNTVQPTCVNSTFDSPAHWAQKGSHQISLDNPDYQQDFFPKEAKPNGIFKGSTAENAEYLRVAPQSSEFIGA
Procedure: EGFR kinase activity was determined via enzyme-linked immunosorbent assay (ELISA) in 96-well plates. The EGFR kinase activity for each compound were expressed as IC50 values. Data were represented as mean ± SD from three independent experiments, and differences between groups were considered statistically significant at p < .05.
The mechanism of antitumour activity of the target compounds was studied using ELISA-based EGFR-TK assay.

In the case of `CN(C)c1ccc(C=Cc2cc(C(=O)NNc3ccccc3)c3cc(Br)ccc3n2)cc1` [Compound 7a, 6-Bromo-2-(4-(dimethylamino)styryl)-N'-phenylquinoline-4-carbohydrazide], the IC50 (HepG2) is reported as 46.1 ± 2.81 µg/mL (≈ 94.6 µM), the IC50 (HCT116) is reported as 49.7 ± 3 µg/mL (≈ 102 µM) and the melting point is reported as 232 °C.
Work on `Cc1ccc2nc(C=Cc3ccc(N(C)C)cc3)cc(C(=O)NNc3ccccc3)c2c1` [Compound 7b, 2-(4-(Dimethylamino)styryl)-6-methyl-N'-phenylquinoline-4-carbohydrazide] yielded an IC50 (HepG2) of 72.8 ± 3.82 µg/mL (≈ 172 µM), an IC50 (HCT116) of 61.4 ± 3.76 µg/mL (≈ 145 µM) and a melting point of 228 °C.
`Cc1ccc2nc(C=Cc3ccc(N(C)C)cc3)cc(-c3nnc(N)s3)c2c1` [Compound 4b, 5-(2-(4-(Dimethylamino)styryl)-6-methylquinolin-4-yl)-1,3,4-thiadiazol-2-amine] gave an IC50 (HepG2) of 7.7 ± 0.15 µg/mL (≈ 19.9 µM), an IC50 (HCT116) of 8.8 ± 0.26 µg/mL (≈ 22.7 µM) and an IC50 (EGFR kinase) of 1.11 µM. It also gave a melting point of 226 °C.
For `CN(C)c1ccc(C=Cc2cc(C(=O)Oc3ccc(C=O)cc3)c3cc(Br)ccc3n2)cc1` [Compound 6a, 4-Formylphenyl 6-bromo-2-(4-(dimethylamino)styryl)quinoline-4-carboxylate], the IC50 (HepG2) was 82.9 ± 4.64 µg/mL (≈ 165 µM), the IC50 (HCT116) was 96.6 ± 5.4 µg/mL (≈ 193 µM) and the melting point was 242 °C.
Work on `O=c1[nH]cc(F)c(=O)[nH]1` [Compound 5-FU, 5-fluorouracil, reference compound] yielded an IC50 (HepG2) of 7.9 ± 0.17 µg/mL (≈ 60.7 µM) and an IC50 (HCT116) of 5.3 ± 0.32 µg/mL (≈ 40.7 µM).
Molecule `CC(=O)C(C(C)=O)C(=O)c1cc(C=Cc2ccc(N(C)C)cc2)nc2ccc(C)cc12` [Compound 9b, 3-(2-(4-(Dimethylamino)styryl)-6-methylquinoline-4-carbonyl)pentane-2,4-dione] has an IC50 (HepG2) greater than 100 µg/mL, an IC50 (HCT116) of 93.1 ± 5.64 µg/mL (≈ 225 µM) and a melting point greater than 300 °C.
`CN(C)C/C=C/C(=O)Nc1cc2c(Nc3ccc(F)c(Cl)c3)ncnc2cc1O[C@H]1CCOC1` [Afatinib, afatinib, reference compound] showed an IC50 (HepG2) of 5.4 ± 0.25 µg/mL (≈ 11.1 µM) and an IC50 (HCT116) of 11.4 ± 1.26 µg/mL (≈ 23.5 µM).
In the case of `Cc1ccc2nc(C=Cc3ccc(N(C)C)cc3)cc(C(=O)Oc3ccc(C=O)cc3)c2c1` [Compound 6b, 4-Formylphenyl 2-(4-(dimethylamino)styryl)-6-methylquinoline-4-carboxylate], the IC50 (HepG2) is reported as greater than 100 µg/mL, the IC50 (HCT116) is reported as greater than 100 µg/mL and the melting point is reported as 248 °C.
Work on `Cc1ccc2nc(C=Cc3ccc(N(C)C)cc3)cc(C(=O)O)c2c1` [Compound 3b, 2–(4-(Dimethylamino)styryl)-6-methylquinoline-4-carboxylic acid] yielded an IC50 (HepG2) of 17.2 ± 1.04 µg/mL (≈ 51.7 µM), an IC50 (HCT116) of 14.8 ± 0.89 µg/mL (≈ 44.5 µM) and an IC50 (EGFR kinase) of 8.01 µM. For the same molecule, the melting point was 275 °C.
With `CCOC(=O)C(C#N)C(=O)c1cc(C=Cc2ccc(N(C)C)cc2)nc2ccc(Br)cc12` (centres unmarked) [Compound 8a, Ethyl 3-(6-bromo-2-(4-(dimethylamino)styryl)quinolin-4-yl)-2-cyano-3-oxopropanoate] the IC50 (HepG2) was 26.2 ± 1.79 µg/mL (≈ 53.2 µM), the IC50 (HCT116) was 16 ± 0.88 µg/mL (≈ 32.5 µM) and the IC50 (EGFR kinase) was 16 µM. The melting point was greater than 300 °C.
`CCOC(=O)C(C#N)C(=O)c1cc(C=Cc2ccc(N(C)C)cc2)nc2ccc(C)cc12` (centres unmarked) [Compound 8b, Ethyl 2-cyano-3-(2-(4-(dimethylamino)styryl)-6-methylquinolin-4-yl)-3-oxopropanoate] gave an IC50 (HepG2) of 43.7 ± 2.66 µg/mL (≈ 102 µM), an IC50 (HCT116) of 52.6 ± 3.92 µg/mL (≈ 123 µM) and a melting point greater than 300 °C.
`CN(C)c1ccc(C=Cc2cc(-c3nnc(N)s3)c3cc(Br)ccc3n2)cc1` [Compound 4a, 5-(6-Bromo-2–(4-(dimethylamino)styryl)quinolin-4-yl)-1,3,4-thiadiazol-2-amine] showed an IC50 (HepG2) of 9 ± 0.19 µg/mL (≈ 19.9 µM), an IC50 (HCT116) of 14.2 ± 0.67 µg/mL (≈ 31.4 µM) and an IC50 (EGFR kinase) of 8.78 µM. The melting point was 223 °C.
In the case of `CC(=O)C(C(C)=O)C(=O)c1cc(C=Cc2ccc(N(C)C)cc2)nc2ccc(Br)cc12` [Compound 9a, 3-(6-Bromo-2-(4-(dimethylamino)styryl)quinoline-4-carbonyl)pentane-2,4-dione], the IC50 (HepG2) is reported as 65.4 ± 3.18 µg/mL (≈ 136 µM), the IC50 (HCT116) is reported as 57.3 ± 3.07 µg/mL (≈ 120 µM) and the melting point is reported as greater than 300 °C.
`CN(C)c1ccc(/C=C/c2cc(C(=O)O)c3cc(Br)ccc3n2)cc1` [Compound 3a] showed an IC50 (HepG2) of 9.8 ± 0.2 µg/mL (≈ 24.7 µM), an IC50 (HCT116) of 9 ± 0.35 µg/mL (≈ 22.7 µM) and an IC50 (EGFR kinase) of 2.23 µM.

Reference: article PMC7012010, “Synthesis and biological evaluation of 2-styrylquinolines as antitumour agents and EGFR kinase inhibitors: molecular docking study” (Journal of Enzyme Inhibition and Medicinal Chemistry, 2017)
